Data taken from ChEMBL document CHEMBL1681670, “Synthesis and cytotoxicity of (-)-renieramycin G analogs” (Bioorg Med Chem Lett, 2011).
Converted amounts (≈) assume the structure as drawn.

Key:
KB [1] = assay: Cytotoxicity against human KB cells after 3 days by MTT assay; type: functional, cell-based; conditions: 72 h
A549 = assay: Cytotoxicity against human A549 cells after 3 days by MTT assay; type: functional, cell-based; conditions: A549, 72 h
MCF7 = assay: Cytotoxicity against human MCF7 cells after 3 days by MTT assay; type: functional, cell-based; conditions: MCF7, 72 h
HeLa = assay: Cytotoxicity against human HeLa cells after 3 days by MTT assay; type: functional, cell-based; conditions: 72 h
Bel-7402 = assay: Cytotoxicity against human Bel7402 cells after 3 days by MTT assay; type: functional, cell-based; conditions: Bel-7402, 72 h
BGC-823 = assay: Cytotoxicity against human BGC823 cells after 3 days by MTT assay; type: functional, cell-based; conditions: BGC-823, 72 h
KETR3 = assay: Cytotoxicity against human Ketr3 cells after 3 days by MTT assay; type: functional, cell-based; conditions: KETR3, 72 h
A2780 = assay: Cytotoxicity against human A2780 cells after 3 days by MTT assay; type: functional, cell-based; conditions: A2780, 72 h
HCT-8 = assay: Cytotoxicity against human HCT8 cells after 3 days by MTT assay; type: functional, cell-based; conditions: HCT-8, 72 h
LoVo = assay: Cytotoxicity against human LoVo cells; type: functional
KB [2] = assay: Cytotoxicity against human KB cells; type: functional

COC1=C(C)C(=O)C2=C(C1=O)[C@@H]1[C@@H]3CC4=C(C(=O)C(OC)=C(C)C4=O)[C@H](COC(=O)/C=C/c4ccc(F)cc4)N3C(=O)[C@H](C2)N1C
IC50 (KB [1]): 3.95 µM | IC50 (A549): 8.32 µM | IC50 (MCF7): 9.67 µM | IC50 (HeLa): 9.99 µM | IC50 (Bel-7402): 14.2 µM | IC50 (BGC-823): 7.43 µM | IC50 (KETR3): 10.4 µM | IC50 (A2780): 15.8 µM | IC50 (HCT-8): 9.15 µM

COC1=C(C)C(=O)C2=C(C1=O)[C@@H]1[C@@H]3CC4=C(C(=O)C(OC)=C(C)C4=O)[C@H](COC(=O)c4cccnc4)N3C(=O)[C@H](C2)N1C
IC50 (KB [1]): 3.16 µM | IC50 (A549): 5.94 µM | IC50 (MCF7): 17.4 µM | IC50 (HeLa): 3.39 µM | IC50 (Bel-7402): 6.47 µM | IC50 (BGC-823): 3.38 µM | IC50 (KETR3): 4.62 µM | IC50 (A2780): 12.2 µM | IC50 (HCT-8): 19.4 µM

COC1=C(C)C(=O)C2=C(C1=O)[C@@H]1[C@@H]3CC4=C(C(=O)C(OC)=C(C)C4=O)[C@H](COC(=O)c4cc5ccccc5[nH]4)N3C(=O)[C@H](C2)N1C
IC50 (KB [1]): 3.36 µM | IC50 (A549): 4.07 µM | IC50 (MCF7): 3.88 µM | IC50 (HeLa): 2.7 µM | IC50 (Bel-7402): 4.59 µM | IC50 (BGC-823): 2.6 µM | IC50 (KETR3): 4.42 µM | IC50 (A2780): 3.8 µM | IC50 (HCT-8): 7.85 µM

COC1=C(C)C(=O)C2=C(C1=O)[C@@H]1[C@@H]3CC4=C(C(=O)C(OC)=C(C)C4=O)[C@H](COC(C)=O)N3C(=O)[C@H](C2)N1C
IC50 (KB [1]): 2.25 µM | IC50 (A549): 4.49 µM | IC50 (MCF7): 4.92 µM | IC50 (HeLa): 2.68 µM | IC50 (Bel-7402): 3.96 µM | IC50 (BGC-823): 4.27 µM | IC50 (KETR3): 4.58 µM | IC50 (A2780): 3.26 µM | IC50 (HCT-8): 5.68 µM

C/C=C/C(=O)OC[C@H]1C2=C(C[C@H]3[C@H]4C5=C(C[C@@H](C(=O)N13)N4C)C(=O)C(C)=C(OC)C5=O)C(=O)C(C)=C(OC)C2=O
IC50 (KB [1]): 5.28 µM | IC50 (A549): 7.42 µM | IC50 (MCF7): 23.8 µM | IC50 (HeLa): 12.7 µM | IC50 (Bel-7402): 23.9 µM | IC50 (BGC-823): 10.7 µM | IC50 (KETR3): 17.2 µM | IC50 (A2780): 25.3 µM | IC50 (HCT-8): 24.7 µM

COC1=C(C)C(=O)C2=C(C1=O)[C@@H]1[C@@H]3CC4=C(C(=O)C(OC)=C(C)C4=O)[C@H](COC(=O)c4cc(OC)c(OC)c(OC)c4)N3C(=O)[C@H](C2)N1C
IC50 (KB [1]): 1.79 µM | IC50 (A549): 2.23 µM | IC50 (MCF7): 2.04 µM | IC50 (HeLa): 1.28 µM | IC50 (Bel-7402): 2.26 µM | IC50 (BGC-823): 1.18 µM | IC50 (KETR3): 2.16 µM | IC50 (A2780): 2.16 µM | IC50 (HCT-8): 2.73 µM

COC1=C(C)C(=O)C2=C(C1=O)[C@@H]1[C@@H]3CC4=C(C(=O)C(OC)=C(C)C4=O)[C@H](COC(=O)/C=C/c4ccc(OC)cc4)N3C(=O)[C@H](C2)N1C
IC50 (KB [1]): 3.73 µM | IC50 (A549): 8.34 µM | IC50 (MCF7): 3.74 µM | IC50 (HeLa): 2.81 µM | IC50 (Bel-7402): 7.28 µM | IC50 (BGC-823): 3.84 µM | IC50 (KETR3): 3.12 µM | IC50 (A2780): 4.16 µM | IC50 (HCT-8): 8.85 µM

COC1=C(C)C(=O)C2=C(C1=O)[C@@H]1[C@@H]3CC4=C(C(=O)C(OC)=C(C)C4=O)[C@H](COC(=O)/C=C/c4cccc5ccccc45)N3C(=O)[C@H](C2)N1C
IC50 (KB [1]): 8.67 µM | IC50 (A549): 5 µM | IC50 (MCF7): 3.94 µM | IC50 (HeLa): 7.42 µM | IC50 (Bel-7402): 9.81 µM | IC50 (BGC-823): 11.7 µM | IC50 (KETR3): 7.89 µM | IC50 (A2780): 9.09 µM | IC50 (HCT-8): 9.31 µM

COC1=C(C)C(=O)C2=C(C1=O)[C@@H]1[C@@H]3CC4=C(C(=O)C(OC)=C(C)C4=O)[C@H](COC(=O)c4cccc5ccccc45)N3C(=O)[C@H](C2)N1C
IC50 (KB [1]): 5.41 µM | IC50 (A549): 12.5 µM | IC50 (MCF7): 14.1 µM | IC50 (HeLa): 7.58 µM | IC50 (Bel-7402): 10.9 µM | IC50 (BGC-823): 17.5 µM | IC50 (KETR3): 13.8 µM | IC50 (A2780): 15 µM | IC50 (HCT-8): 28 µM

COC1=C(C)C(=O)C2=C(C1=O)[C@@H]1[C@@H]3CC4=C(C(=O)C(OC)=C(C)C4=O)[C@H](COC(=O)/C=C/c4cccnc4)N3C(=O)[C@H](C2)N1C
IC50 (KB [1]): 0.39 µM | IC50 (A549): 2.05 µM | IC50 (MCF7): 2.23 µM | IC50 (HeLa): 1.18 µM | IC50 (Bel-7402): 2.3 µM | IC50 (BGC-823): 1.26 µM | IC50 (KETR3): 1.43 µM | IC50 (A2780): 2.24 µM | IC50 (HCT-8): 2.05 µM

C/C=C/C=C/C(=O)OC[C@H]1C2=C(C[C@H]3[C@H]4C5=C(C[C@@H](C(=O)N13)N4C)C(=O)C(C)=C(OC)C5=O)C(=O)C(C)=C(OC)C2=O
IC50 (KB [1]): 2.03 µM | IC50 (A549): 3.2 µM | IC50 (MCF7): 2.54 µM | IC50 (HeLa): 2.43 µM | IC50 (Bel-7402): 2.13 µM | IC50 (BGC-823): 3.5 µM | IC50 (KETR3): 3.86 µM | IC50 (A2780): 2.44 µM | IC50 (HCT-8): 3.47 µM

COC1=C(C)C(=O)C2=C(C1=O)[C@@H]1[C@@H]3CC4=C(C(=O)C(OC)=C(C)C4=O)[C@H](COC(=O)/C=C/c4ccc(OC)c(OC)c4OC)N3C(=O)[C@H](C2)N1C
IC50 (KB [1]): 8.22 µM | IC50 (A549): 10.6 µM | IC50 (MCF7): 10.6 µM | IC50 (HeLa): 5.1 µM | IC50 (Bel-7402): 14 µM | IC50 (BGC-823): 9.34 µM | IC50 (KETR3): 9.29 µM | IC50 (A2780): 16.8 µM | IC50 (HCT-8): 12.4 µM

C/C=C(/C)C(=O)OC[C@H]1C2=C(C[C@H]3[C@H]4C5=C(C[C@@H](C(=O)N13)N4C)C(=O)C(C)=C(OC)C5=O)C(=O)C(C)=C(OC)C2=O [(-)-RENIERAMYCIN G]
IC50 (KB [1]): 3.3 µM | IC50 (A549): 5 µM | MIC (LoVo): 1 µg/mL (≈ 1.77 µM) | IC50 (MCF7): 3.78 µM | IC50 (HeLa): 2.88 µM | IC50 (Bel-7402): 9.07 µM | MIC (KB [2]): 0.5 µg/mL (≈ 0.886 µM) | IC50 (BGC-823): 3.37 µM | IC50 (KETR3): 3.42 µM | IC50 (A2780): 4.17 µM | IC50 (HCT-8): 8.81 µM

COC1=C(C)C(=O)C2=C(C1=O)[C@@H]1[C@@H]3CC4=C(C(=O)C(OC)=C(C)C4=O)[C@H](COC(=O)c4cccs4)N3C(=O)[C@H](C2)N1C
IC50 (KB [1]): 0.02 µM | IC50 (A549): 0.71 µM | IC50 (MCF7): 1.86 µM | IC50 (HeLa): 0.47 µM | IC50 (Bel-7402): 1.6 µM | IC50 (BGC-823): 0.52 µM | IC50 (KETR3): 1.67 µM | IC50 (A2780): 1.44 µM | IC50 (HCT-8): 1.48 µM

COC1=C(C)C(=O)C2=C(C1=O)[C@@H]1[C@@H]3CC4=C(C(=O)C(OC)=C(C)C4=O)[C@H](COC(=O)c4ccccc4)N3C(=O)[C@H](C2)N1C
IC50 (KB [1]): 2.83 µM | IC50 (A549): 3.88 µM | IC50 (MCF7): 4.94 µM | IC50 (HeLa): 3.1 µM | IC50 (Bel-7402): 3.78 µM | IC50 (BGC-823): 8.35 µM | IC50 (KETR3): 8.82 µM | IC50 (A2780): 3.07 µM | IC50 (HCT-8): 6.06 µM

COC1=C(C)C(=O)C2=C(C1=O)[C@@H]1[C@@H]3CC4=C(C(=O)C(OC)=C(C)C4=O)[C@H](COC(=O)/C=C/c4ccccc4)N3C(=O)[C@H](C2)N1C
IC50 (KB [1]): 2.96 µM | IC50 (A549): 5 µM | IC50 (MCF7): 3.55 µM | IC50 (HeLa): 4.39 µM | IC50 (Bel-7402): 2.3 µM | IC50 (BGC-823): 3.31 µM | IC50 (KETR3): 7.83 µM | IC50 (A2780): 5 µM | IC50 (HCT-8): 5 µM
